The test system of assay [1] is Radical scavenging activity. The experiment in a line: Antioxidant activity assessed as inhibition of DPPH radical production at 54.05 ug/ml after 30 min by microplate assay. It is filed as functional. (In general: DPPH is a stable violet radical that fades when it is reduced.)
For assay [2], the target named is Lysosomal alpha-glucosidase (Rattus norvegicus) (UniProt Q6P7A9). The experiment in a line: Inhibition ofRattus norvegicus alpha-glucosidase isolated from intestine using PNPG as substrate at 0.03 uM incubated for 15 min prior to substrate addition measured after 15 min by spectrophotometric analysis.
Sequence of Lysosomal alpha-glucosidase (Rattus norvegicus) (Q6P7A9 whole entry): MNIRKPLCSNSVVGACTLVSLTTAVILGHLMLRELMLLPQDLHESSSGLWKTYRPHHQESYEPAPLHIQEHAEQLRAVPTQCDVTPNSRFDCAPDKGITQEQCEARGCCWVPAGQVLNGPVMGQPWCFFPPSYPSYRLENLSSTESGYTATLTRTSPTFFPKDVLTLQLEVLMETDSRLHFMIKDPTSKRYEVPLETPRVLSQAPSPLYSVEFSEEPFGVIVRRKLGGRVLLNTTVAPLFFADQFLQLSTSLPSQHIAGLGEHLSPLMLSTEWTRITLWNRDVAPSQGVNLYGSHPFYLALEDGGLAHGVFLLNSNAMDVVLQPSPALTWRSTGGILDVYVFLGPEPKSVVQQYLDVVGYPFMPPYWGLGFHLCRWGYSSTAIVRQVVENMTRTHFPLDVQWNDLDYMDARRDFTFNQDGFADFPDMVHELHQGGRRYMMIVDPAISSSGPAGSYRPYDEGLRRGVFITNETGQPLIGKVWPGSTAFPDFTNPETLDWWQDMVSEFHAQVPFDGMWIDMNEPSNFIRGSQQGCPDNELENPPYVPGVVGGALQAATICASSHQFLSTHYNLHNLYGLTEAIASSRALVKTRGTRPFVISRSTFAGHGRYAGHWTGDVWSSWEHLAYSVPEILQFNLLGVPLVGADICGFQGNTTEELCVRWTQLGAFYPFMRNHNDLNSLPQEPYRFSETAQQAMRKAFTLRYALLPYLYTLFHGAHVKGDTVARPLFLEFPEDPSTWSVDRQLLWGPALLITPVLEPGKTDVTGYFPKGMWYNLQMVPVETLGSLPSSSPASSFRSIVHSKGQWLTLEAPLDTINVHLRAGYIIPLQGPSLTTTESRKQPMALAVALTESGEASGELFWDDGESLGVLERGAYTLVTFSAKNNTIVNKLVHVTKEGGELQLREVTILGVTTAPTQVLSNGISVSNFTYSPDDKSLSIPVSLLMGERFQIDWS
The species named for assay [3] is Homo sapiens. The experiment in a line: Inhibition of alpha-glucosidase (unknown origin) using PNPG as substrate at 0.03 uM incubated for 15 min prior to substrate addition measured after 15 min by spectrophotometric analysis.
Assay [4] deals with Lysosomal alpha-glucosidase (Rattus norvegicus) (UniProt Q6P7A9). The experiment in a line: Inhibition ofRattus norvegicus alpha-glucosidase isolated from intestine using PNPG as substrate at 0.02 uM incubated for 15 min prior to substrate addition measured after 15 min by spectrophotometric analysis.
Assay [5] in a line: Inhibition of alpha-glucosidase (unknown origin) using PNPG as substrate at 0.02 uM incubated for 15 min prior to substrate addition measured after 15 min by spectrophotometric analysis. As to conditions: Homo sapiens.
Assay [6] concerns the target Lysosomal alpha-glucosidase (Rattus norvegicus) (UniProt Q6P7A9). As to conditions: 0.83 uM.
Description: Inhibition ofRattus norvegicus alpha-glucosidase isolated from intestine using PNPG as substrate at 0.83 uM incubated for 15 min prior to substrate addition measured after 15 min by spectrophotometric analysis
Assay [7] in a line: Inhibition of alpha-glucosidase (unknown origin) using PNPG as substrate incubated for 15 min prior to substrate addition measured after 15 min by spectrophotometric analysis. Further details: species or system Homo sapiens.
Assay [8] is filed under the species Homo sapiens. As to the kind of experiment: Inhibition of alpha-glucosidase (unknown origin) using PNPG as substrate at 0.83 uM incubated for 15 min prior to substrate addition measured after 15 min by spectrophotometric analysis.
Assay [9] relates to Radical scavenging activity. The experiment in a line: Antioxidant activity assessed as inhibition of DPPH radical production at 108.11 ug/ml after 30 min by microplate assay. In kind it is functional.
In assay [10] the test system is Radical scavenging activity. The experiment in a line: Antioxidant activity assessed as inhibition of DPPH radical production after 30 min by microplate assay. It is filed as functional.
The test system of assay [11] is Radical scavenging activity. As to the kind of experiment: Antioxidant activity assessed as inhibition of DPPH radical production at 10.81 ug/ml after 30 min by microplate assay. It is filed as functional.

In general, inhibition refers to the change of the read-out against control, counted positive when it falls. In general, IC50 refers to the point on the concentration scale where inhibition reaches its midpoint.

≈ marks a conversion by molar mass, not a printed value. Where only a bound is given, the exact number is not on record here.

As for `O=c1c(O)c(-c2ccc(O)c(O)c2)oc2c(O)ccc(O)c12`, the results for the inhibition (in [1]; in [2]; in the assay listed under Homo sapiens [3]) were 2.63%, less than 50% and 14.3%, respectively.
On to `O=c1c(O[C@@H]2O[C@H](CO)[C@@H](O)[C@H](O)[C@H]2O)c(-c2ccc(O)cc2)oc2cc(O)cc(O)c12`, for which the figures for the inhibition in assay [4], in assay [5] and in [1] were less than 50%, 18% and 1.96%, respectively.
With `C[C@H]1O[C@H](O[C@H]2[C@H](O)[C@@H](O)[C@@H](O[C@H]3[C@H](O)[C@@H](O)C(O)O[C@@H]3CO)O[C@@H]2CO)[C@H](O)[C@@H](O)[C@@H]1N[C@H]1C=C(CO)[C@@H](O)[C@H](O)[C@H]1O` (some centres undefined) [ACARBOSE], the values for the inhibition (in assay [6]; in the assay filed under Homo sapiens [8]) were 55.2% and 68.4%, respectively. Moreover, in [7], the IC50 was determined as 895 µM.
`Cc1cc(C(C)(C)C)c(O)c(C(C)(C)C)c1` [BUTYLATED HYDROXYTOLUENE]: the inhibition in assay [9] came out at 80.5%. For the same compound, in assay [10], the IC50 came out at 40.8 µg/mL (≈ 185 µM).
Consider `O=c1c(O[C@@H]2O[C@H](CO)[C@H](O)[C@H](O)[C@H]2O)c(-c2ccc(O)c(O)c2)oc2cc(O)cc(O)c12` [HYPEROSIDE], for which the inhibition was less than 50% in [4], 14.2% in assay [5] and 86.5% in assay [1]. For the same compound, in assay [10], the IC50 was 24.02 µg/mL (≈ 51.7 µM).
The like results for `O=c1c(O[C@@H]2O[C@H](CO)[C@@H](O)[C@H](O)[C@H]2O)c(-c2ccc(O)c(O)c2)oc2cc(O)cc(O)c12` [ISOQUERCETIN] were, in that order, less than 50%, 14.4%, 86.1% and 24.02 µg/mL (≈ 51.7 µM).
`O=c1c(O)c(-c2ccc(O)cc2)oc2cc(O)cc(O)c12` [KAEMPFEROL]: the IC50 in assay [7] was 61.8 µM; in [10], 14.78 µg/mL (≈ 51.6 µM). In addition, the results for the inhibition (in assay [1]; in assay [2]; in the assay listed under Homo sapiens [3]) were 90.1%, 99.3% and 51.5%, respectively.
As to `CCCOC(=O)c1cc(O)c(O)c(O)c1` [PROPYL GALLATE], the inhibition in assay [11] was 89%. Moreover, in assay [10], the IC50 was found to be 3.96 µg/mL (≈ 18.7 µM).
For the compound `C[C@H]1[C@H](C)CC[C@]2(C(=O)O)CC[C@]3(C)C(=CC[C@@H]4[C@@]5(C)CC[C@H](O)C(C)(C)[C@@H]5CC[C@]43C)[C@H]12` [URSOLIC ACID], the inhibition was less than 50% in assay [4] and 99.7% in assay [5]. The IC50 in assay [7] came out at 1.78 µM.

These data come from ChEMBL document CHEMBL3046526, “-Glucosidase inhibitory and antioxidant properties and antidiabetic activity of Hypericum ascyron L” (Med Chem Res, 2011).
